Results on 14 compounds are retold here after patent US20260297081A1, “COMPOUNDS AND METHODS OF TREATING CANCERS” (Cullgen Inc., priority 2023, published 2026).

One assay concerns MCF7 cells. Description: Anti-proliferation (viability) of MCF7 cells (Table 7, FIG. 2B). The note with it: Homo sapiens, MCF7, MCF7 cells, 3-6 days, 10-point serial dilution; read-out: GI IC50 in MCF-7. It counts as cell-based.
Another assay deals with CDK4 (Homo sapiens, UniProt P11802+Q16531). Description: HiBiT detection of HiBiT-tagged CDK4 protein level in MCF7 cells, 16 hours (Table 8). It counts as cell-based. On the set-up: expressed in transfected cells; host or cells: MCF7. The note with it: MCF7 cells stably expressing HiBiT tagged target proteins; for activity at 0.01 µM: 10 nM, read-out: % CDK4 Relative Level (10 nM); for activity at 0.1 µM: 100 nM, read-out: % CDK4 Relative Level (100 nM). On the procedure:
HiBiT detection system quantitatively measures total amounts of HiBiT-tagged proteins using a luminescent based method. MCF7 cells stably expressing HiBiT tagged target proteins were treated with heterobifunctional compounds at indicated concentrations for 16 hours, then lysed with Nano-Glo HiBiT Lytic detection reagents.
Background: HiBiT is a short tag that completes a luciferase, so light tracks the accessible tagged protein.

Sequence of CDK4 (P11802 whole entry): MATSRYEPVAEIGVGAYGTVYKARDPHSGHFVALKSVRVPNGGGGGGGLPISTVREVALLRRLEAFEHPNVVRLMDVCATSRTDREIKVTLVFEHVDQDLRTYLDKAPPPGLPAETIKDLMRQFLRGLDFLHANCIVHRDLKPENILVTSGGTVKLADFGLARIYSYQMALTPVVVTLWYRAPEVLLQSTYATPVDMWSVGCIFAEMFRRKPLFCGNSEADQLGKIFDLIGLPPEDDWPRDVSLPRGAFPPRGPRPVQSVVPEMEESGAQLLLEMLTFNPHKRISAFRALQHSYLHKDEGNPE
Sequence of CDK4 (P24385 whole entry partner): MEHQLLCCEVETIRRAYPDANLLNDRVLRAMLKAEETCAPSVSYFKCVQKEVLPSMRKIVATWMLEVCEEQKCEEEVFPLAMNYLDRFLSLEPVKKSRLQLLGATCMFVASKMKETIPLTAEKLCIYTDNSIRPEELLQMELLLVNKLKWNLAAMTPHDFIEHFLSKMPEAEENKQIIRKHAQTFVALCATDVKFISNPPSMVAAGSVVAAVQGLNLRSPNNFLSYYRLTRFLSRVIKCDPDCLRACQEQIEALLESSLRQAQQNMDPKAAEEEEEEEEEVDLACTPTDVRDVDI
Sequence of CDK4 (Q16531 2-1140 limits assumed): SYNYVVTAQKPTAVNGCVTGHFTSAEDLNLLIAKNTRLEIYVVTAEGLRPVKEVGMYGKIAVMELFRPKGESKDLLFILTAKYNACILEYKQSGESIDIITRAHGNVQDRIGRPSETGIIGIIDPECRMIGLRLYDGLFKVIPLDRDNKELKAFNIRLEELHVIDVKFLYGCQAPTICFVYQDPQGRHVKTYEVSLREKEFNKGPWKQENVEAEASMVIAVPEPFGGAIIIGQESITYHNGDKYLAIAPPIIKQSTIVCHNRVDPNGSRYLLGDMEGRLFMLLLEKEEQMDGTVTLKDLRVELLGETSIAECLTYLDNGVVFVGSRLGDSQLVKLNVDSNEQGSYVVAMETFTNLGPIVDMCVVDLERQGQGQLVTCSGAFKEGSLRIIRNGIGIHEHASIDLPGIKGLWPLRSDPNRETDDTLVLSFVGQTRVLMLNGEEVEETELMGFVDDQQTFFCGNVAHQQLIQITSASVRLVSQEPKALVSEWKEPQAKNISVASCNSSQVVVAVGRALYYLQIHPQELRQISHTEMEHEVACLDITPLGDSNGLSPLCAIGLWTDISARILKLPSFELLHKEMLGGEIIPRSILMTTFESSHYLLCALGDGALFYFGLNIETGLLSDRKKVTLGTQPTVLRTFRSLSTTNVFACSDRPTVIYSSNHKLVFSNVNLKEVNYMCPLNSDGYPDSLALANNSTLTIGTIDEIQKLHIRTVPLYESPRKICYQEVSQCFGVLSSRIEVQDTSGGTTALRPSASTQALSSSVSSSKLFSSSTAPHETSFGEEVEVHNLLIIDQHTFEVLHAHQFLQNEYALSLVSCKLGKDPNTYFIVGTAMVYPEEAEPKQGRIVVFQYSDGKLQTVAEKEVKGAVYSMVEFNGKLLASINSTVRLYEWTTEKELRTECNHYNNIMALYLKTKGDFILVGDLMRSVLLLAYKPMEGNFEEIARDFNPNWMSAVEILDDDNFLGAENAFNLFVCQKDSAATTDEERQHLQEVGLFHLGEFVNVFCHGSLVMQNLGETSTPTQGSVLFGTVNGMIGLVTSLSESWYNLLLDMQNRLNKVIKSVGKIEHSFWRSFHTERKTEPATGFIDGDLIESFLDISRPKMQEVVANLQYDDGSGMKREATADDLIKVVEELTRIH

What is called IC50 is the midpoint of a concentration-inhibition curve. Turning to `CC(=O)c1c(C)c2cnc(Nc3ccc(CN4CCN(C(C)C(=O)NC5CC6(C5)CC(Nc5nc(NC(C)C)ccc5C(=O)Nc5ccc(N(C)C)nn5)C6)CC4)cn3)nc2n(C2CCCC2)c1=O` (stereo not drawn) [CPD-585, 2-((6-(2-(4-((6-((6-acetyl-8-cyclopentyl-5-methyl-7-oxo-7,8-dihydropyrido[2,3-d]pyrimidin-2-yl)amino)pyridin-3-yl)methyl)piperazin-1-yl)propanamido)spiro[3.3]heptan-2-yl)amino)-N-(6-(dimethylamino)pyridazin-3-yl)-6-(isopropylamino)nicotinamide], in the assay with MCF7 cells, the IC50 is less than 50 nM. On CDK4, the activity at 0.01 µM was 55 to 85% and the activity at 0.1 µM was in the range of 55 to 85%.

Turning to `CC(=O)c1c(C)c2cnc(Nc3ccc(CN4CCN(CC(=O)NC5CC6(C5)CC(Nc5nc(C(C)C)ccc5C(=O)Nc5ccc(N(C)C)nn5)C6)CC4)cn3)nc2n(C2CCCC2)c1=O` (stereo not drawn) [CPD-579, 2-((6-(2-(4-((6-((6-acetyl-8-cyclopentyl-5-methyl-7-oxo-7,8-dihydropyrido[2,3-d]pyrimidin-2-yl)amino)pyridin-3-yl)methyl)piperazin-1-yl)acetamido)spiro[3.3]heptan-2-yl)amino)-N-(6-(dimethylamino)pyridazin-3-yl)-6-isopropylnicotinamide], the concentration for half-maximal inhibition (IC50) in the assay with MCF7 cells was less than 50 nM. Moreover, at CDK4, the activity at 0.01 µM lay within 55 to 85% and the activity at 0.1 µM lay within 55 to 85%.

Regarding `CC(=O)c1c(C)c2cnc(Nc3ccc(N4CCC(N(C)CC(=O)N5CC6(CC(Nc7nc(NC(C)C)ccc7C(=O)Nc7ccc(N(C)C)nn7)C6)C5)CC4)cn3)nc2n(C2CCCC2)c1=O` [CPD-425, 2-((2-(N-(1-(6-((6-acetyl-8-cyclopentyl-5-methyl-7-oxo-7,8-dihydropyrido[2,3-d]pyrimidin-2-yl)amino)pyridin-3-yl)piperidin-4-yl)-N-methylglycyl)-2-azaspiro[3.3]heptan-6-yl)amino)-N-(6-(dimethylamino)pyridazin-3-yl)-6-(isopropylamino)nicotinamide], in the assay on MCF7 cells, the IC50 was less than 50 nM. In addition, on CDK4, the activity at 0.01 µM is 55 to 85% and the activity at 0.1 µM lay within 55 to 85%.

For the compound `CC(C)Nc1ccc(C(=O)Nc2ccc(N(C)C)nn2)c(NC2CC3(C2)CN(C(=O)CN2CCN(Cc4ccc(Nc5ncc6cc7n(c6n5)C5(CCCCC5)CNC7=O)nc4)CC2)C3)n1` [CPD-557, N-(6-(dimethylamino)pyridazin-3-yl)-6-(isopropylamino)-2-((2-(2-(4-((6-((6′-oxo-7′,8′-dihydro-6′H-spiro[cyclohexane-1,9′-pyrazino[1′,2′:1,5]pyrrolo[2,3-d]pyrimidin]-2′-yl)amino)pyridin-3-yl)methyl)piperazin-1-yl)acetyl)-2-azaspiro[3.3]heptan-6-yl)amino)nicotinamide], the IC50 in the assay with MCF7 cells is more than 100 nM. On CDK4, the activity at 0.01 µM was more than 85% and the activity at 0.1 µM is more than 85%.

Turning to `CNc1ccc(C(=O)Nc2ccc(N(C)C)nn2)c(NCCCCCCNC(=O)CN2CCN(c3ccc(Nc4ncc5cc6n(c5n4)C4(CCCCC4)CNC6=O)nc3)CC2)n1` [CPD-644, N-(6-(dimethylamino)pyridazin-3-yl)-6-(methylamino)-2-((6-(2-(4-(6-((6′-oxo-7′,8′-dihydro-6′H-spiro[cyclohexane-1,9′-pyrazino[1′,2′:1,5]pyrrolo[2,3-d]pyrimidin]-2′-yl)amino)pyridin-3-yl)piperazin-1-yl)acetamido)hexyl)amino)nicotinamide], the IC50 in the assay with MCF7 cells was more than 100 nM. Moreover, at CDK4, the activity at 0.01 µM is more than 85% and the activity at 0.1 µM was more than 85%.

Regarding `CC(=O)c1c(C)c2cnc(Nc3ccc(N4CCN(C(C)CC(=O)N5CC6(CC(Nc7nc(NC(C)C)ccc7C(=O)Nc7ccc(N(C)C)nn7)C6)C5)CC4)cn3)nc2n(C2CCCC2)c1=O` (stereo not drawn) [CPD-368, 2-((2-(3-(4-(6-((6-acetyl-8-cyclopentyl-5-methyl-7-oxo-7,8-dihydropyrido[2,3-d]pyrimidin-2-yl)amino)pyridin-3-yl)piperazin-1-yl)butanoyl)-2-azaspiro[3.3]heptan-6-yl)amino)-N-(6-(dimethylamino)pyridazin-3-yl)-6-(isopropylamino)nicotinamide], in the assay with MCF7 cells, the 50% inhibitory concentration (IC50) is less than 50 nM. Moreover, at CDK4, the activity at 0.01 µM lay in the range of 55 to 85% and the activity at 0.1 µM was 55 to 85%.

On to `CC(=O)c1c(C)c2cnc(Nc3ccc(N4CCC5(CC4)CC5C(=O)N4CCC(Nc5nc(NC(C)C)ccc5C(=O)Nc5ccc(N(C)C)nn5)CC4)cn3)nc2n(C2CCCC2)c1=O` (stereo not drawn) [CPD-407, 2-((1-(6-(6-((6-acetyl-8-cyclopentyl-5-methyl-7-oxo-7,8-dihydropyrido[2,3-d]pyrimidin-2-yl)amino)pyridin-3-yl)-6-azaspiro[2.5]octane-1-carbonyl)piperidin-4-yl)amino)-N-(6-(dimethylamino)pyridazin-3-yl)-6-(isopropylamino)nicotinamide], for which, in the assay with MCF7 cells, the IC50 was less than 50 nM. On CDK4, the activity at 0.01 µM was in the range of 55 to 85% and the activity at 0.1 µM lay within 55 to 85%.

On to `CNc1ccc(C(=O)Nc2ccc(N(C)C)nn2)c(NCCCCCCCC(=O)N2CCN(c3ccc(Nc4ncc5cc(C(=O)N(C)C)n(C6CCCC6)c5n4)nc3)CC2)n1` [CPD-621, 7-cyclopentyl-2-((5-(4-(8-((3-((6-(dimethylamino)pyridazin-3-yl)carbamoyl)-6-(methylamino)pyridin-2-yl)amino)octanoyl)piperazin-1-yl)pyridin-2-yl)amino)-N,N-dimethyl-7H-pyrrolo[2,3-d]pyrimidine-6-carboxamide], for which the 50% inhibitory concentration (IC50) in the assay on MCF7 cells is more than 100 nM. Besides, on CDK4, the activity at 0.01 µM is 55 to 85% and the activity at 0.1 µM fell in the range of 55 to 85%.

For the compound `[2H]C([2H])([2H])Nc1ccc(C(=O)Nc2cc(C)n(C)n2)c(NC2CC3(C2)CN(C(=O)CN2CCC4(CCN(c5ccc(Nc6ncc7c(C)c(C(C)=O)c(=O)n(C8CCCC8)c7n6)nc5)C4)C2)C3)n1` (stereo not drawn) [CPD-447, 2-((2-(2-(7-(6-((6-acetyl-8-cyclopentyl-5-methyl-7-oxo-7,8-dihydropyrido[2,3-d]pyrimidin-2-yl)amino)pyridin-3-yl)-2,7-diazaspiro[4.4]nonan-2-yl)acetyl)-2-azaspiro[3.3]heptan-6-yl)amino)-N-(1,5-dimethyl-1H-pyrazol-3-yl)-6-((methyl-d3)amino)nicotinamide], the IC50 in the assay on MCF7 cells is less than 50 nM. On CDK4, the activity at 0.01 µM lay within 55 to 85% and the activity at 0.1 µM was 55 to 85%.

As to `CNc1ccc(C(=O)Nc2ccc(N(C)C)nn2)c(NCCCCC(=O)N2CCN(c3ccc(Nc4ncc5cc(C(=O)N(C)C)n(C6CCCC6)c5n4)nc3)CC2)n1` [CPD-618, 7-cyclopentyl-2-((5-(4-(5-((3-((6-(dimethylamino)pyridazin-3-yl)carbamoyl)-6-(methylamino)pyridin-2-yl)amino)pentanoyl)piperazin-1-yl)pyridin-2-yl)amino)-N,N-dimethyl-7H-pyrrolo[2,3-d]pyrimidine-6-carboxamide], the IC50 in the assay on MCF7 cells was more than 100 nM. At CDK4, the activity at 0.01 µM was more than 85% and the activity at 0.1 µM was 55 to 85%.

Turning to `CNc1ccc(C(=O)Nc2ccc(N(C)C)nn2)c(NCCCCCC(=O)N2CCN(c3ccc(Nc4ncc5cc6n(c5n4)C4(CCCCC4)CNC6=O)nc3)CC2)n1` [CPD-635, N-(6-(dimethylamino)pyridazin-3-yl)-6-(methylamino)-2-((6-oxo-6-(4-(6-((6′-oxo-7′,8′-dihydro-6′H-spiro[cyclohexane-1,9′-pyrazino[1′,2′:1,5]pyrrolo[2,3-d]pyrimidin]-2′-yl)amino)pyridin-3-yl)piperazin-1-yl)hexyl)amino)nicotinamide], the concentration for half-maximal inhibition (IC50) with MCF7 cells was more than 100 nM. Also, at CDK4, the activity at 0.01 µM lay within 55 to 85% and the activity at 0.1 µM fell in the range of 55 to 85%.

For `CC(=O)c1c(C)c2cnc(Nc3ccc(CN4CCN(CC(=O)N(C)C5CC6(CC(Nc7nc(NC(C)C)ccc7C(=O)Nc7ccc(N(C)C)nn7)C6)C5)CC4)cn3)nc2n(C2CCCC2)c1=O` (stereo not drawn) [CPD-594, 2-((6-(2-(4-((6-((6-acetyl-8-cyclopentyl-5-methyl-7-oxo-7,8-dihydropyrido[2,3-d]pyrimidin-2-yl)amino)pyridin-3-yl)methyl)piperazin-1-yl)-N-methylacetamido)spiro[3.3]heptan-2-yl)amino)-N-(6-(dimethylamino)pyridazin-3-yl)-6-(isopropylamino)nicotinamide], in the assay on MCF7 cells, the IC50 was less than 50 nM. On CDK4, the activity at 0.01 µM is 55 to 85% and the activity at 0.1 µM fell in the range of 55 to 85%.

With `CC(=O)c1c(C)c2cnc(Nc3ccc(CC4CCN(CC(=O)NC5CC6(C5)CC(Nc5nc(NC(C)C)ccc5C(=O)Nc5ccc(N(C)C)nn5)C6)CC4)cn3)nc2n(C2CCCC2)c1=O` (stereo not drawn) [CPD-599, 2-((6-(2-(4-((6-((6-acetyl-8-cyclopentyl-5-methyl-7-oxo-7,8-dihydropyrido[2,3-d]pyrimidin-2-yl)amino)pyridin-3-yl)methyl)piperidin-1-yl)acetamido)spiro[3.3]heptan-2-yl)amino)-N-(6-(dimethylamino)pyridazin-3-yl)-6-(isopropylamino)nicotinamide], the half-inhibitory concentration (IC50) in the assay on MCF7 cells is less than 50 nM. For the same compound, on CDK4, the activity at 0.01 µM lay within 55 to 85% and the activity at 0.1 µM lay in the range of 55 to 85%.

In the case of `CC(=O)c1c(C)c2cnc(Nc3ccc(N4CCN(C5CCN(C(=O)[C@H]6CC[C@H](Nc7nc(C8CC8)ccc7C(=O)Nc7ccc(N(C)C)nn7)CC6)C5)CC4)cn3)nc2n(C2CCCC2)c1=O` (stereo partly drawn) [CPD-573, 2-((trans-4-(3-(4-(6-((6-acetyl-8-cyclopentyl-5-methyl-7-oxo-7,8-dihydropyrido[2,3-d]pyrimidin-2-yl)amino)pyridin-3-yl)piperazin-1-yl)pyrrolidine-1-carbonyl)cyclohexyl)amino)-6-cyclopropyl-N-(6-(dimethylamino)pyridazin-3-yl)nicotinamide], in the assay with MCF7 cells, the IC50 was less than 50 nM. Besides, at CDK4, the activity at 0.01 µM fell in the range of 55 to 85% and the activity at 0.1 µM was 55 to 85%.
